# Laboratory results published in the NIST ThermoML archive (doi:10.1021/je900596d).
# ± gives the expanded uncertainty stated by the source.
# Settings: 362.9 K, Vibrating tube method
smiles,measurement,setting,value
FC(F)=C(F)C(F)(F)F [hexafluoropropene],mass density,"986.7 kPa, Fluid (supercritical or subcritical phases)",55.35 ± 0.08 kg/m3
same,mass density,"1010.4 kPa, Fluid (supercritical or subcritical phases)",56.58 ± 0.09 kg/m3
same,mass density,"1044 kPa, Fluid (supercritical or subcritical phases)",59.01 ± 0.09 kg/m3
same,mass density,"1060.4 kPa, Fluid (supercritical or subcritical phases)",59.9 ± 0.09 kg/m3
same,mass density,"1076.4 kPa, Fluid (supercritical or subcritical phases)",61.11 ± 0.09 kg/m3
same,mass density,"1097.9 kPa, Fluid (supercritical or subcritical phases)",62.31 ± 0.09 kg/m3
same,mass density,"1119.7 kPa, Fluid (supercritical or subcritical phases)",63.86 ± 0.1 kg/m3
same,mass density,"1141.5 kPa, Fluid (supercritical or subcritical phases)",65.33 ± 0.1 kg/m3
same,mass density,"1162.5 kPa, Fluid (supercritical or subcritical phases)",66.89 ± 0.1 kg/m3
same,mass density,"1202.5 kPa, Fluid (supercritical or subcritical phases)",69.4 ± 0.1 kg/m3
same,mass density,"1221.4 kPa, Fluid (supercritical or subcritical phases)",70.92 ± 0.1 kg/m3
same,mass density,"1239.6 kPa, Fluid (supercritical or subcritical phases)",71.99 ± 0.11 kg/m3
same,mass density,"1257.3 kPa, Fluid (supercritical or subcritical phases)",73.4 ± 0.11 kg/m3
same,mass density,"1274.3 kPa, Fluid (supercritical or subcritical phases)",74.42 ± 0.11 kg/m3
same,mass density,"1293.3 kPa, Fluid (supercritical or subcritical phases)",76 ± 0.11 kg/m3
same,mass density,"1312.3 kPa, Fluid (supercritical or subcritical phases)",77.04 ± 0.11 kg/m3
same,mass density,"1331.5 kPa, Fluid (supercritical or subcritical phases)",78.67 ± 0.12 kg/m3
same,mass density,"1349 kPa, Fluid (supercritical or subcritical phases)",79.84 ± 0.12 kg/m3
same,mass density,"1367.1 kPa, Fluid (supercritical or subcritical phases)",81.15 ± 0.12 kg/m3
same,mass density,"1388 kPa, Fluid (supercritical or subcritical phases)",82.53 ± 0.12 kg/m3
same,mass density,"1408.2 kPa, Fluid (supercritical or subcritical phases)",83.98 ± 0.12 kg/m3
same,mass density,"1429.7 kPa, Fluid (supercritical or subcritical phases)",85.75 ± 0.13 kg/m3
same,mass density,"1447.9 kPa, Fluid (supercritical or subcritical phases)",86.99 ± 0.13 kg/m3
same,mass density,"1484.9 kPa, Fluid (supercritical or subcritical phases)",89.9 ± 0.13 kg/m3
same,mass density,"1503.2 kPa, Fluid (supercritical or subcritical phases)",91.22 ± 0.13 kg/m3
same,mass density,"1521.3 kPa, Fluid (supercritical or subcritical phases)",92.61 ± 0.14 kg/m3
same,mass density,"1544.9 kPa, Fluid (supercritical or subcritical phases)",94.44 ± 0.14 kg/m3
same,mass density,"1567.8 kPa, Fluid (supercritical or subcritical phases)",96.26 ± 0.14 kg/m3
same,mass density,"1613.4 kPa, Fluid (supercritical or subcritical phases)",99.81 ± 0.15 kg/m3
same,mass density,"1634.9 kPa, Fluid (supercritical or subcritical phases)",101.65 ± 0.15 kg/m3
same,mass density,"1655.8 kPa, Fluid (supercritical or subcritical phases)",103.37 ± 0.15 kg/m3
same,mass density,"1676.7 kPa, Fluid (supercritical or subcritical phases)",104.81 ± 0.15 kg/m3
same,mass density,"1696.6 kPa, Fluid (supercritical or subcritical phases)",106.47 ± 0.16 kg/m3
same,mass density,"1716 kPa, Fluid (supercritical or subcritical phases)",108.07 ± 0.16 kg/m3
same,mass density,"1734.8 kPa, Fluid (supercritical or subcritical phases)",109.59 ± 0.17 kg/m3
same,mass density,"1753 kPa, Fluid (supercritical or subcritical phases)",111.4 ± 0.17 kg/m3
same,mass density,"1771.1 kPa, Fluid (supercritical or subcritical phases)",112.78 ± 0.16 kg/m3
same,mass density,"1788.6 kPa, Fluid (supercritical or subcritical phases)",114.27 ± 0.17 kg/m3
same,mass density,"1805.4 kPa, Fluid (supercritical or subcritical phases)",115.72 ± 0.17 kg/m3
same,mass density,"1838.2 kPa, Fluid (supercritical or subcritical phases)",118.54 ± 0.18 kg/m3
same,mass density,"1868.9 kPa, Fluid (supercritical or subcritical phases)",121.28 ± 0.18 kg/m3
same,mass density,"1898.3 kPa, Fluid (supercritical or subcritical phases)",124.13 ± 0.19 kg/m3
same,mass density,"1923.7 kPa, Fluid (supercritical or subcritical phases)",126.25 ± 0.19 kg/m3
same,mass density,"1953.6 kPa, Fluid (supercritical or subcritical phases)",129.06 ± 0.2 kg/m3
same,mass density,"1971.3 kPa, Fluid (supercritical or subcritical phases)",130.89 ± 0.2 kg/m3
same,mass density,"1988.2 kPa, Fluid (supercritical or subcritical phases)",132.28 ± 0.2 kg/m3
same,mass density,"2005 kPa, Fluid (supercritical or subcritical phases)",133.86 ± 0.21 kg/m3
same,mass density,"2021.3 kPa, Fluid (supercritical or subcritical phases)",135.65 ± 0.21 kg/m3
same,mass density,"2037.3 kPa, Fluid (supercritical or subcritical phases)",137.17 ± 0.21 kg/m3
same,mass density,"2066.9 kPa, Fluid (supercritical or subcritical phases)",140.08 ± 0.21 kg/m3
same,mass density,"2099 kPa, Fluid (supercritical or subcritical phases)",143.21 ± 0.22 kg/m3
same,mass density,"2115.6 kPa, Fluid (supercritical or subcritical phases)",144.99 ± 0.22 kg/m3
same,mass density,"2133.5 kPa, Fluid (supercritical or subcritical phases)",146.69 ± 0.23 kg/m3
same,mass density,"2152 kPa, Fluid (supercritical or subcritical phases)",148.88 ± 0.24 kg/m3
same,mass density,"2207.8 kPa, Fluid (supercritical or subcritical phases)",154.82 ± 0.24 kg/m3
same,mass density,"2239 kPa, Fluid (supercritical or subcritical phases)",158.23 ± 0.25 kg/m3
same,mass density,"2255.7 kPa, Fluid (supercritical or subcritical phases)",160.15 ± 0.25 kg/m3
same,mass density,"2279.2 kPa, Fluid (supercritical or subcritical phases)",162.54 ± 0.26 kg/m3
same,mass density,"2296 kPa, Fluid (supercritical or subcritical phases)",164.49 ± 0.26 kg/m3
same,mass density,"2320.6 kPa, Fluid (supercritical or subcritical phases)",167.17 ± 0.27 kg/m3
same,mass density,"2341.1 kPa, Fluid (supercritical or subcritical phases)",169.73 ± 0.28 kg/m3
same,mass density,"2363.6 kPa, Fluid (supercritical or subcritical phases)",172.35 ± 0.29 kg/m3
same,mass density,"2382.4 kPa, Fluid (supercritical or subcritical phases)",174.89 ± 0.3 kg/m3
same,mass density,"2399.2 kPa, Fluid (supercritical or subcritical phases)",176.97 ± 0.29 kg/m3
same,mass density,"2416.1 kPa, Fluid (supercritical or subcritical phases)",178.92 ± 0.3 kg/m3
same,mass density,"2454.2 kPa, Fluid (supercritical or subcritical phases)",183.72 ± 0.31 kg/m3
same,mass density,"2471.2 kPa, Fluid (supercritical or subcritical phases)",185.86 ± 0.32 kg/m3
same,mass density,"2493.7 kPa, Fluid (supercritical or subcritical phases)",188.92 ± 0.33 kg/m3
same,mass density,"2510.8 kPa, Fluid (supercritical or subcritical phases)",191.35 ± 0.33 kg/m3
same,mass density,"2532.7 kPa, Fluid (supercritical or subcritical phases)",194.2 ± 0.34 kg/m3
same,mass density,"2568.3 kPa, Fluid (supercritical or subcritical phases)",199.28 ± 0.36 kg/m3
same,mass density,"2584.5 kPa, Fluid (supercritical or subcritical phases)",201.68 ± 0.36 kg/m3
same,mass density,"2637.6 kPa, Fluid (supercritical or subcritical phases)",209.57 ± 0.38 kg/m3
same,mass density,"2655.8 kPa, Fluid (supercritical or subcritical phases)",212.2 ± 0.39 kg/m3
same,mass density,"2673.6 kPa, Fluid (supercritical or subcritical phases)",215.1 ± 0.41 kg/m3
same,mass density,"2690.3 kPa, Fluid (supercritical or subcritical phases)",217.71 ± 0.42 kg/m3
same,mass density,"2706.4 kPa, Fluid (supercritical or subcritical phases)",220.44 ± 0.42 kg/m3
same,mass density,"2736.2 kPa, Fluid (supercritical or subcritical phases)",225.31 ± 0.44 kg/m3
same,mass density,"2764.5 kPa, Fluid (supercritical or subcritical phases)",230.31 ± 0.46 kg/m3
same,mass density,"2781.5 kPa, Fluid (supercritical or subcritical phases)",233.26 ± 0.48 kg/m3
same,mass density,"2809.5 kPa, Fluid (supercritical or subcritical phases)",238.5 ± 0.5 kg/m3
same,mass density,"2870.6 kPa, Fluid (supercritical or subcritical phases)",250.29 ± 0.55 kg/m3
same,mass density,"2897.9 kPa, Fluid (supercritical or subcritical phases)",256.08 ± 0.6 kg/m3
same,mass density,"2916.5 kPa, Fluid (supercritical or subcritical phases)",260.21 ± 0.61 kg/m3
same,mass density,"2944.7 kPa, Fluid (supercritical or subcritical phases)",266.58 ± 0.65 kg/m3
same,mass density,"2978.3 kPa, Fluid (supercritical or subcritical phases)",274.33 ± 0.69 kg/m3
same,mass density,"2997 kPa, Fluid (supercritical or subcritical phases)",278.8 ± 0.74 kg/m3
same,mass density,"3015.2 kPa, Fluid (supercritical or subcritical phases)",283.34 ± 0.78 kg/m3
same,mass density,"3032.8 kPa, Fluid (supercritical or subcritical phases)",287.81 ± 0.83 kg/m3
same,mass density,"3049.7 kPa, Fluid (supercritical or subcritical phases)",292.35 ± 0.9 kg/m3
same,mass density,"3066.4 kPa, Fluid (supercritical or subcritical phases)",297.12 ± 1 kg/m3
same,mass density,"3119.6 kPa, Fluid (supercritical or subcritical phases)",313.41 ± 1.1 kg/m3
same,mass density,"3140.3 kPa, Fluid (supercritical or subcritical phases)",320.42 ± 1.1 kg/m3
same,mass density,"3159.2 kPa, Fluid (supercritical or subcritical phases)",327.22 ± 1.2 kg/m3
same,mass density,"3176.3 kPa, Fluid (supercritical or subcritical phases)",333.78 ± 1.2 kg/m3
same,mass density,"3193.5 kPa, Fluid (supercritical or subcritical phases)",340.76 ± 1.3 kg/m3
same,mass density,"3209.9 kPa, Fluid (supercritical or subcritical phases)",347.93 ± 1.4 kg/m3
same,mass density,"3229.3 kPa, Fluid (supercritical or subcritical phases)",357.01 ± 1.5 kg/m3
same,mass density,"3246.9 kPa, Fluid (supercritical or subcritical phases)",366.07 ± 1.6 kg/m3
same,mass density,"3263.4 kPa, Fluid (supercritical or subcritical phases)",375.24 ± 1.8 kg/m3
same,mass density,"3285.9 kPa, Fluid (supercritical or subcritical phases)",389.23 ± 2 kg/m3
same,mass density,"3305.8 kPa, Fluid (supercritical or subcritical phases)",403.5 ± 2.5 kg/m3
same,mass density,"3341.5 kPa, Fluid (supercritical or subcritical phases)",436.07 ± 3 kg/m3
same,mass density,"3360.9 kPa, Fluid (supercritical or subcritical phases)",459.89 ± 8 kg/m3
same,mass density,"3377.9 kPa, Fluid (supercritical or subcritical phases)",530.57 ± 10 kg/m3
same,mass density,"3394.4 kPa, Fluid (supercritical or subcritical phases)",567.77 ± 6.8 kg/m3
same,mass density,"3410.4 kPa, Fluid (supercritical or subcritical phases)",601.27 ± 6.3 kg/m3
same,mass density,"3426.7 kPa, Fluid (supercritical or subcritical phases)",633.69 ± 5 kg/m3
same,mass density,"3445.3 kPa, Fluid (supercritical or subcritical phases)",659.79 ± 4 kg/m3
same,mass density,"3463.4 kPa, Fluid (supercritical or subcritical phases)",682.18 ± 3.6 kg/m3
same,mass density,"3480.7 kPa, Fluid (supercritical or subcritical phases)",701.66 ± 3 kg/m3
same,mass density,"3498.4 kPa, Fluid (supercritical or subcritical phases)",717.14 ± 2.6 kg/m3
same,mass density,"4505.3 kPa, Fluid (supercritical or subcritical phases)",920.24 ± 0.99 kg/m3
same,mass density,"4525.6 kPa, Fluid (supercritical or subcritical phases)",921.9 ± 0.99 kg/m3
same,mass density,"4552.8 kPa, Fluid (supercritical or subcritical phases)",924.12 ± 1 kg/m3
same,mass density,"4579.3 kPa, Fluid (supercritical or subcritical phases)",926.3 ± 1 kg/m3
same,mass density,"4626.5 kPa, Fluid (supercritical or subcritical phases)",929.99 ± 1 kg/m3
same,mass density,"4646.5 kPa, Fluid (supercritical or subcritical phases)",931.47 ± 1 kg/m3
same,mass density,"4666.9 kPa, Fluid (supercritical or subcritical phases)",932.99 ± 1 kg/m3
same,mass density,"4687.6 kPa, Fluid (supercritical or subcritical phases)",934.6 ± 1 kg/m3
same,mass density,"4707.8 kPa, Fluid (supercritical or subcritical phases)",936.1 ± 1 kg/m3
same,mass density,"4762.6 kPa, Liquid",939.84 ± 1.1 kg/m3
same,mass density,"4784.8 kPa, Liquid",941.44 ± 1.1 kg/m3
same,mass density,"4810.7 kPa, Liquid",943.09 ± 1.1 kg/m3
same,mass density,"4836.8 kPa, Liquid",944.88 ± 1.1 kg/m3
same,mass density,"4878.2 kPa, Liquid",947.51 ± 1.1 kg/m3
same,mass density,"4899.5 kPa, Liquid",948.95 ± 1.1 kg/m3
same,mass density,"4921.9 kPa, Liquid",950.41 ± 1.1 kg/m3
same,mass density,"4942.5 kPa, Liquid",951.63 ± 1.1 kg/m3
same,mass density,"4962.8 kPa, Liquid",952.76 ± 1.1 kg/m3
same,mass density,"4983.6 kPa, Liquid",954.01 ± 1.1 kg/m3
same,mass density,"5010.6 kPa, Liquid",955.79 ± 1.1 kg/m3
same,mass density,"5047.3 kPa, Liquid",957.89 ± 1.1 kg/m3
